Legend:
[1] = tested on: NCI-H460 (lung large cell); assay: NCI sulforhodamine B human cancer cell growth inhibition, NCI-H460; type: cell-based; settings: in DMSO
Description: (§1) Cancer Cell Line Methods. The National Cancer Institute's standard sulforhodamine B assay was used to assess inhibition of human cancer cell growth. The murine P388 lymphocytic leukemia cell line results were obtained using 10% horse serum/Fisher medium with incubation for 24 hours.

[2] = tested on: murine P388 lymphocytic leukemia cell line; assay: Murine P388 lymphocytic leukemia cell line growth inhibition; type: cell-based; settings: in DMSO
Description: as §1

SF268 (CNS glioblastoma) = assay: NCI sulforhodamine B human cancer cell growth inhibition, SF268; type: cell-based; settings: in DMSO
Description: as §1

[3] = tested on: MCF-7 (breast adenocarcinoma); assay: NCI sulforhodamine B human cancer cell growth inhibition, MCF-7; type: cell-based; settings: in DMSO
Description: as §1

[4] = tested on: KML20L2 (colon adenocarcinoma); assay: NCI sulforhodamine B human cancer cell growth inhibition, KML20L2; type: cell-based; settings: in DMSO
Description: as §1

[5] = tested on: BXPC-3 (pancreas adenocarcinoma); assay: NCI sulforhodamine B human cancer cell growth inhibition, BXPC-3; type: cell-based; settings: in DMSO
Description: as §1

[6] = tested on: DU-145 (prostate carcinoma); assay: NCI sulforhodamine B human cancer cell growth inhibition, DU-145; type: cell-based; settings: in DMSO
Description: as §1

[7] = tested on: in vivo L-1210 lymphoid leukemia; settings: cited from earlier work
[8] = tested on: human epidermoid carcinoma of the nasopharynx (KB) cell line; settings: cited from earlier work
[9] = tested on: murine P388 lymphocytic leukemia (in vivo); settings: dose levels from 4.0 to 800 mg/kg, 123 = 23% increase in median survival time; cited from earlier work

For `CCCCCCCCCCC/C=C/[C@@H](O)[C@H](CO[C@@H]1O[C@H](CO)[C@H](O)[C@H](O)[C@H]1O)NC(=O)CCCCCCCCCCCCCCCCC` [Compound 4, 1-O-β-D-galactopyranosyl-2S-octadecanoylamino-3R-hydroxy-4E-hexadecene], the “Cell line inhibition value GI50” value [1] was 0.49 µg/mL, the “Cell line inhibition value GI50” value [2] was 0.29 µg/mL and the “Cell line inhibition value GI50” value (SF268 (CNS glioblastoma)) was 1.5 µg/mL. For the same compound, the “Cell line inhibition value GI50” value [3] was 0.44 µg/mL, the “Cell line inhibition value GI50” value [4] was 0.41 µg/mL and the “Cell line inhibition value GI50” value [5] was 0.93 µg/mL. For the same compound, the “Cell line inhibition value GI50” value [6] was 2.6 µg/mL.

In the case of `CCCCCCCCCCC/C=C/[C@@H](O)[C@H](CO[C@@H]1O[C@H](CO)[C@H](O)[C@H](O)[C@H]1O)NC(=O)CCCCCCCCCCCCCCC` [Compound 3, 1-O-β-D-galactopyranosyl-2S-hexadecanoylamino-3R-hydroxy-4E-hexadecene], the “Cell line inhibition value GI50” value [1] is reported as 0.55 µg/mL, the “Cell line inhibition value GI50” value [2] is reported as 0.25 µg/mL and the “Cell line inhibition value GI50” value (SF268 (CNS glioblastoma)) is reported as 1.9 µg/mL. For the same compound, the “Cell line inhibition value GI50” value [3] was 0.48 µg/mL, the “Cell line inhibition value GI50” value [4] was 0.48 µg/mL and the “Cell line inhibition value GI50” value [5] was 1.6 µg/mL. The “Cell line inhibition value GI50” value [6] was 2.6 µg/mL.

For `CCCCCCCCCCC/C=C/[C@@H](O)[C@H](CO[C@@H]1O[C@H](CO)[C@@H](O)[C@H](O)[C@H]1O)NC(=O)CCCCCCCCCCCCCCC` [Compound 1, 1-O-β-D-glucopyranosyl-2S-hexadecanoylamino-3R-hydroxy-4E-hexadecene], the “Cell line inhibition value GI50” value [1] was 0.34 µg/mL, the “Cell line inhibition value GI50” value [2] was 0.27 µg/mL and the “Cell line inhibition value GI50” value (SF268 (CNS glioblastoma)) was 0.98 µg/mL. The “Cell line inhibition value GI50” value [3] was 0.44 µg/mL, the “Cell line inhibition value GI50” value [4] was 0.35 µg/mL and the “Cell line inhibition value GI50” value [5] was 0.71 µg/mL. The “Cell line inhibition value GI50” value [6] was 1.6 µg/mL.

With `CCCCCCCCCCC/C=C/[C@@H](O)[C@H](CO[C@@H]1O[C@H](CO)[C@@H](O)[C@H](O)[C@H]1O)NC(=O)CCCCCCCCCCCCCCCCC` [Compound 2, 1-O-β-D-glucopyranosyl-2S-octadecanoylamino-3R-hydroxy-4E-hexadecene] the “Cell line inhibition value GI50” value [1] was 0.53 µg/mL, the “Cell line inhibition value GI50” value [2] was 0.15 µg/mL and the “Cell line inhibition value GI50” value (SF268 (CNS glioblastoma)) was 1.9 µg/mL. For the same compound, the “Cell line inhibition value GI50” value [3] was 0.39 µg/mL, the “Cell line inhibition value GI50” value [4] was 0.35 µg/mL and the “Cell line inhibition value GI50” value [5] was 1.0 µg/mL. For the same compound, the “Cell line inhibition value GI50” value [6] was 1.7 µg/mL.

In the case of `NCCS(=O)(=O)O` [taurine], the “Activity against in vivo L-1210 lymphoid leukemia” value [7] is listed as “inactive”, the “Activity against KB cell line” value [8] is listed as “inactive” and the T/C [9] is listed as at most 123.
